Molecules are shown by their SMILES.

The conditions of the first series: in 2-octyl-1-dodecanol, 2-hexyl-1-decanol, isostearyl alcohol or oleyl alcohol; temperature range of 4 to 50° C. As to the method: 50 or 150 parts by weight of tulobuterol was added to each of the following resolvents in such a manner that the total amount of an obtained tulobuterol solution became 1000 parts by weight: 2-octyl-1-dodecanol (manufactured by Cognis Japan Ltd., under the trade name of “EUTANOL G”), 2-hexyl-1-decanol (manufactured by Cognis Japan Ltd., under the trade name of “EUTANOL G16N”), isostearyl alcohol (manufactured by Kokyu Alcohol Kogyo Co., Ltd., under the trade name of “Isostearyl Alcohol EX”), oleyl alcohol (manufactured by Kokyu Alcohol Kogyo Co., Ltd., under the trade name of “Oleyl Alcohol VP”), cetanol (hexadecyl alcohol) (manufactured by NOF Corporation, under the trade name of “NAA-44”), isopropyl myristate (manufactured by Nikko Chemicals Co., Ltd., under the trade name of “IPM-100”), decyl oleate (manufactured by Cognis Japan Ltd., under the trade name of “CETIOL V”), medium chain triglyceride (manufactured by NOF Corporation, under the trade name of “PANACET 800”), polyethylene glycol (manufactured by Maruishi Pharmaceutical Co., Ltd., under the trade name of “MACROGOL 400 (Japanese Pharmacopoeia)”), propylene glycol (manufactured by Maruishi Pharmaceutical Co., Ltd., under the trade name of “Propylene Glycol (Japanese Pharmacopoeia)”), and liquid paraffin (manufactured by Sankei Sangyo K.K., under the trade name of “Liquid Paraffin No. 350”). Each of the thus obtained tulobuterol solutions was kept at 50° C. for 120 minutes, and was then kept at 20° C. for 24 hours, and was further kept at 4° C. for 24 hours.
At this time, the tulobuterol solution was visually observed to see whether crystalline tulobuterol was deposited or not after the completion of each warming of the tulobuterol solution at 50, 20 or 4° C. The results are shown in Table 1 wherein the mark “◯” represents a case where crystalline tulobuterol was not observed, and the mark “X” represents a case where crystalline tulobuterol was observed.
The solubility of each of these drugs in these resolvents was determined in the same manner as in a case where the solubility of tulobuterol in these resolvents was determined.
50 or 150 parts by weight of tyramine (manufactured by Tokyo Chemical Industries Co., Ltd.) was added to each of the above-mentioned resolvents (i.e., 2-octyl-1-dodecanol, isopropyl myristate, polyethylene glycol, and propylene glycol) in such a manner that the total amount of an obtained tyramine solution became 1000 parts by weight. The solubility of tyramine in these resolvents was determined in the same manner as in a case where the solubility of tulobuterol in these resolvents was determined.
With `CNC[C@H](O)c1ccc(O)c(O)c1` [epinephrine], the “Stable dissolution in resolvents of the invention” value (“Stable dissolution in resolvents” for short) was “not stably dissolved”. In the case of `CCCCOC(=O)[C@@H](N)Cc1ccc(O)c(O)c1` [levodopa butyl ester], the “Stable dissolution in resolvents” value is given as “not stably dissolved”. As to `CCOc1ccc(NC(C)=O)cc1` [phenacetin], the “Stable dissolution in resolvents” value was “not stably dissolved”. As to `N[C@@H](Cc1ccccc1)C(=O)O` [phenylalanine], the “Stable dissolution in resolvents” value is “not stably dissolved”. Still for that read-out and setting: the value for `CC(C)(C)NCC(O)c1ccccc1Cl` (stereo not shown) [tulobuterol] was “stably dissolved”; that for `NCCc1ccc(O)cc1` [tyramine] was “not stably dissolved”.

Still in this series, the particulars now being: resolvent cetanol; solution kept at 50° C.
Consider `CC(C)(C)NCC(O)c1ccccc1Cl` (stereo not shown) [tulobuterol], for which the Dissolution in cetanol result is recorded as “completely dissolved”.

These data come from patent US20140242151A1, “ADHESIVE SKIN PATCH” (Sekisui Chemical Co., Ltd., priority 2003, published 2014).
